Source: patent US20210127675A1, “METHOD FOR C[…]-TYPE MULTIDRUG RESISTANT PLANT DISEASES” (priority 2017, published 2021)

Tests used:
[1] = tested on: grapes gray mold fungus (Botrytis cinerea); assay: Control test against efflux type multidrug resistant grapes gray mold fungus (growth in PDB, absorbance at 600 nm); type: cell-based; conditions: for EC50 value ratio 1: EC50 against resistant strain 1 / EC50 against wild-type strain; for EC50 value ratio 2: EC50 against resistant strain 2 / EC50 against wild-type strain; for EC50 value ratio 3: EC50 against resistant strain 3 / EC50 against wild-type strain; for EC50 value, Efflux type multidrug resistant fungus strain 1: strain 1: ABC transporter-overexpressing (Bc-56, NITE BP-02676); for EC50 value, Efflux type multidrug resistant fungus strain 1 / EC50 value, Efflux type multidrug resistant fungus strain 2 / EC50 value, Efflux type multidrug resistant fungus strain 3 / EC50 value, Wild-type fungus strain: 18° C., 2 days; for EC50 value, Efflux type multidrug resistant fungus strain 2: strain 2: MFS transporter-overexpressing (Bc-107, NITE BP-02678); for EC50 value, Efflux type multidrug resistant fungus strain 3: strain 3: ABC transporter and MFS transporter-overexpressing (Bc-103, NITE BP-02677)
Procedure: (§1) Efficacy=100×(X−Y)/X “Equation 1” • X: Degree of growth of fungus in non-treated group • Y: Degree of growth of fungus in treated group
(§2) EC50 value ratio=EC50 value against efflux type multidrug resistant fungus strain/EC50 value against wild-type fungus strain “Equation 2”
Control Test Against Efflux Type Multidrug Resistant Grapes Gray Mold Fungus (Botrytis cinerea)
Each of the present compound (1), fludioxonil and tolnaftrate was diluted with dimethyl sulfoxide to a prescribed concentration thereof, respectively. Each of the chemical solutions comprising the respective testing compound was dispensed into a titer plate (with 96 wells) in the amount of 1 μL. Thereto was then dispensed 150 μL of a potato dextrose broth (PDB culture media) to which each conidia of grapes gray mold fungi, that is, efflux type multidrug resistant fungus strains (specifically, efflux type multidrug resistant fungus strain 1: ABC transporter-overexpressing fungus strain (fungus strain name: NITE accession number (NITE BP-02676), in-house management codes (Bc-56)); efflux type multidrug resistant fungus strain 2: MFS transporter-overexpressing fungus strain (fungus strain name: NITE accession number (NITE BP-02678), in-house management codes (Bc-107)); and efflux type multidrug resistant fungus strain 3: ABC transporter and MFS transporter-overexpressing fungus strain (fungus strain name: NITE accession number (NITE BP-02677), in-house management codes (Bc-103))) or wild-type fungus strain, respectively, was inoculated in advance. The plate was cultured at 18° C. for 2 days, thereby allowing each grapes gray mold fungus to undergo proliferation, and the absorbance at 600 nm of each well of the titer plate was then measured to determine a degree of growth of each of the grapes gray mold fungi (treated group). On the other hand, each of the groups where the wild-type fungus strain or the efflux type multidrug resistant grapes gray mold fungus strains was grown except that the chemical solution was replaced with dimethyl sulfoxide were made non-treated group, respectively, and then the degree of the growth thereof was examined (non-treated group).
The efficacy was calculated from the degree of the growth by the below-mentioned “Equation 1”, and then each EC50 value of the testing compound, respectively against the efflux type multidrug resistant fungus strains and the wild-type fungus strain was calculated. Also, an EC50 value ratio was calculated by the above-mentioned “Equation 2”.

[2] = tested on: wheat Septoria leaf blotch fungus (Zymoseptoria tritici); assay: Control test against efflux type multidrug resistant wheat Septoria leaf blotch fungus (growth in PDB, absorbance at 600 nm); type: cell-based; conditions: for EC50 value ratio: EC50 against efflux type multidrug resistant strain / EC50 against wild-type strain; for EC50 value, Efflux type multidrug resistant fungus strain: efflux type multidrug resistant fungus strain St 106-6; for EC50 value, Efflux type multidrug resistant fungus strain / EC50 value, Wild-type fungus strain: 18° C., 4 days
Procedure: Control test against Efflux type multidrug resistant wheat Septoria leaf blotch fungus (Zymoseptoria tritici)
Each of the present compound (1) and tolnaftrate was diluted with dimethyl sulfoxide to a prescribed concentration thereof, respectively. Each of the chemical solutions comprising the respective testing compound was dispensed into a titer plate (with 96 wells) in the amount of 1 μL. Thereto was then dispensed 150 μL of a potato dextrose broth (PDB culture media) to which each conidia of wheat Septoria leaf blotch fungus (efflux type multidrug resistant fungus strains) (fungus strain name: St 106-6 as in-house management codes) or wild-type fungus strain, respectively, was inoculated in advance. The plate was cultured at 18° C. for 4 days, thereby allowing each wheat Septoria leaf blotch fungus to undergo proliferation, and the absorbance at 600 nm of each well of the titer plate was then measured to determine a degree of growth of the wheat Septoria leaf blotch fungus (treated group). On the other hand, each of the groups where the wild-type fungus strain or the efflux type multidrug resistant wheat Septoria leaf blotch fungus strain was grown except that the chemical solution was replaced with dimethyl sulfoxide were made non-treated group, respectively, and then the degree of growth thereof was examined (non-treated group).
The efficacy was calculated from the degree of the growth by the below-mentioned “Equation 1”, and then each […] value of the testing compound, respectively against the efflux type multidrug resistant fungus strains and the wild-type fungus strain was calculated. Next, as shown in the below-mentioned “Equation 2”, an EC50 value ratio was calculated by dividing an EC50 value against the efflux type multidrug resistant fungus strains by an EC50 value against the wild-type fungus strain.
as §1, §2

SMILES | EC50 value ratio 1 [1] | EC50 value ratio 2 [1] | EC50 value ratio 3 [1] | EC50 value, Efflux type multidrug resistant fungus strain 1 [1] [ppm] | EC50 value, Efflux type multidrug resistant fungus strain 2 [1] [ppm] | EC50 value, Efflux type multidrug resistant fungus strain 3 [1] [ppm] | EC50 value, Wild-type fungus strain [1] [ppm] | EC50 value ratio [2] | EC50 value, Efflux type multidrug resistant fungus strain [2] [ppm] | EC50 value, Wild-type fungus strain [2] [ppm] | EC50 value ratio 1 ([1]; listed as tolnaftate) | EC50 value ratio 2 ([1]; listed as tolnaftate) | EC50 value ratio 3 ([1]; listed as tolnaftate) | EC50 value ratio ([2]; listed as tolnaftate)
N#Cc1c[nH]cc1-c1cccc2c1OC(F)(F)O2 [Fludioxonil] | 23 | 14 | 43 | 0.19 | 0.12 | 0.36 | 0.0085 |  |  |  |  |  |  | 
Cc1nn(C)c(Nc2c(F)cccc2Cl)c1-c1ccc(F)cc1Br [Present compound (1)] | 1.7 | 1.6 | 1.1 | 0.11 | 0.11 | 0.072 | 0.067 | 1.1 | 0.052 | 0.048 |  |  |  | 
Cc1cccc(N(C)C(=S)Oc2ccc3ccccc3c2)c1 [Tolnaftate] | >4.5 | >4.5 | >4.5 | >10 | >10 | >10 | 2.2 | >19 | >10 | 0.51 | more than 4.5 | more than 4.5 | more than 4.5 | 19
